According to patent publication US9580418B2, “Bicyclic aromatic carboxamide compounds useful as Pim kinase inhibitors” (Incyte Corporation, priority 2014, dated 2017):

Columns and labels:
Pim-3 = Pim-3 (Homo sapiens (Human), UniProt Q86V86); assay: Pim-3 kinase assay (Pim enzyme assays, Example A); format: biochemical; conditions: 1 mM ATP, BAD peptide substrate; read-out: PIM3 IC50
Method: (§1) Pim-1 and Pim-3 kinase assays-20 μL reactions were run in white 384 well polystyrene plates dotted with 0.8 μL compound/DMSO in the assay buffer (50 mM Tris, pH 7.5, 0.01% Tween-20, 5 mM mgCl2, 0.01% BSA, 5 mM DTT), containing 0.05 μM Biotin-labeled BAD peptide substrate (AnaSpec 62269), 1 mM ATP, and 2.5 pM (Pim-1, Invitrogen PV3503) or 1.25 pM (Pim-3, Millipore 14-738) enzyme for 1 h at 25° C. Reactions were stopped by addition of 10 μL STOP Buffer (150 mM Tris, pH=7.5, 150 mM NaCl, 75 mM EDTA, 0.01% Tween-20, 0.3% BSA,) supplemented with Phospho-Bad (Ser112) Antibody (Cell Signaling 9291) diluted 666-fold, and Streptavidin donor beads (PerkinElmer 6760002) along with Protein-A acceptor beads (PerkinElmer 6760137) at 15 μg/mL each. Supplementation of the STOP buffer with beads and stopping the reactions were done under reduced light. Prior to the stopping reactions STOP buffer with beads was preincubated for 1 h in the dark at room temperature. After stopping the reactions, plates were incubated for 1 h in the dark at room temperature before reading on a PHERAstar FS plate reader (BMG Labtech) under reduced light.

Pim-2 = Pim-2 (Homo sapiens (Human), UniProt Q9P1W9); assay: Pim-2 kinase assay (Pim enzyme assays, Example A); format: biochemical; conditions: 1 mM ATP, CREBtide peptide substrate; read-out: PIM2 IC50
Method: Pim-2 kinase assay-20 μL reactions were run in white 384 well polystyrene plates dotted with 0.8 μL compound/DMSO in the assay buffer (50 mM Tris, pH 7.5, 0.01% Tween-20, 5 mM mgCl2, 0.01% BSA, 5 mM DTT), containing 0.05 μM Fluorescein-labeled CREBtide peptide substrate (Invitrogen PV3508), 1 mM ATP, and 1 nM enzyme (Invitrogen PV3649) for 2 h at 25° C. Reactions were stopped by addition of 10 μL TR-FRET Dilution Buffer (Invitrogen PV3574) with 30 mM EDTA and 1.5 nM LanthaScreen Tb-CREB pSer133 antibody (Invitrogen PV3566). After 30 min. incubation at room temperature, plates were read on a PHERAstar FS plate reader (BMG Labtech).

Pim-1 = Pim-1 (Homo sapiens (Human), UniProt P11309); assay: Pim-1 kinase assay (Pim enzyme assays, Example A); format: biochemical; conditions: 1 mM ATP, BAD peptide substrate; read-out: PIM1 IC50
Method: as §1

pBAD in KMS.12.BM cells = assay: Pim pBAD signaling assay in KMS.12.BM cells (Example B); format: cell-based; conditions: Homo sapiens, 2.5 h incubation, pBAD ELISA
Method: KG-1A cells are purchased from ATCC (Manassas, Va.) and KMS.12.BM cells are purchased from NIBIO, JCRB cell bank (Tokyo, Japan) and maintained in the culture mediums recommended, RPMI, 10% FBS and IMDM 20% FBS (Mediatech, Manassas, Va.) respectively. To measure the pBAD inhibitory activity of the compounds, both cell lines are plated with the culture medium (1×10^6/well/100 μL for KG1A and 4×10^5 cells/well/in 100 μL for KMS12BM) into 96-well V bottom polypropylene plates (Matrix, Thermo Fisher, USA) and incubated 30 min. at 37° C. to normalize cell signaling from handling. Test compounds are added at an appropriate concentration range and further incubated for 2.5 h for KMS.12.BM cells and 4 h for KG1-A cells. Plates are centrifuged at 2000 RPM for 10 min. and supernatants aspirated. 100 μL lysis buffer with protease inhibitors (Cell Signaling Technologies, Danver, Mass., Sigma, St Louis Mo., EMD, USA) is added to the pellets, mixed well and set on ice for 30 min. Lysates are frozen overnight at −80° C. To measure the pBAD activity, a Cell Signaling ELISA kit (Cell Signaling Path Scan phosphor pBAD ELISA) is utilized. 50 μL of the lysate is tested per the ELISA protocol and the data analysis is performed by software on a SpectrMax5 plate reader (Molecular Devices, Sunnyvale, Calif.). IC50 determination is performed by fitting the curve of percent inhibition versus the log of the inhibitor concentration using the GraphPad Prism 5.0 software.

Pim-1, sequence (P11309 whole entry): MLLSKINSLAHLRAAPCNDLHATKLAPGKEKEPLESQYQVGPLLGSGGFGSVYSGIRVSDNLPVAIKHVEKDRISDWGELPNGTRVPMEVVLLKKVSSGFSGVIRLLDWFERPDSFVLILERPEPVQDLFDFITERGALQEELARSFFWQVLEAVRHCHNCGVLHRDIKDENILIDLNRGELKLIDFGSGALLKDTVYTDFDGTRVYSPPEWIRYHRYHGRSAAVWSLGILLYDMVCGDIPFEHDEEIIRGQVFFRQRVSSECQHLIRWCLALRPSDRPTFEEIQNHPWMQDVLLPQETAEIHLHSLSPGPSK
Pim-2, sequence (Q9P1W9 whole entry): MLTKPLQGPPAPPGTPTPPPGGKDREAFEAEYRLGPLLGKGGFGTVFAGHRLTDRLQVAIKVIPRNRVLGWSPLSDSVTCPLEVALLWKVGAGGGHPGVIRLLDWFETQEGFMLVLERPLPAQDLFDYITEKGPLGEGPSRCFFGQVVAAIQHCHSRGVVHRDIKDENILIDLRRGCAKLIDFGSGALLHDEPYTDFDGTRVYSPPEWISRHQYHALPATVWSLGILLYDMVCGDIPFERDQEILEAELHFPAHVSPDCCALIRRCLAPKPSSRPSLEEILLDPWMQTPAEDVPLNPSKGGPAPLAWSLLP

| Structure (SMILES) | IC50 (Pim-3) | IC50 (Pim-2) | IC50 (Pim-1) | IC50 (pBAD in KMS.12.BM cells) |
| --- | --- | --- | --- | --- |
| N[C@@H]1CN(c2ccncc2NC(=O)c2ccc3ncc(-c4ccc(N5CCOCC5)nc4)cc3n2)C[C@H](C2CC2)[C@H]1O [Example 37, N-{4-[(3R,4R,5S)-3-Amino-5-cyclopropyl-4-hydroxypiperidin-1-yl]pyridin-3-yl}-7-(6-morpholin-4-ylpyridin-3-yl)-1,5-naphthyridine-2-carboxamide] | ≤ 10 nM | ≤ 100 nM | ≤ 10 nM | ≤ 50 nM |
| CCn1cc(-c2cnc3ccc(C(=O)Nc4cnccc4N4C[C@@H](N)[C@H](O)[C@@H](C5CC5)C4)nc3c2)cn1 [Example 38, N-{4-[(3R,4R,5S)-3-Amino-5-cyclopropyl-4-hydroxypiperidin-1-yl]pyridin-3-yl}-7-(1-ethyl-1H-pyrazol-4-yl)-1,5-naphthyridine-2-carboxamide] | ≤ 10 nM | ≤ 100 nM | ≤ 10 nM | ≤ 50 nM |
| Cn1cc(-c2cnc3ccc(C(=O)Nc4cnccc4N4C[C@@H](N)[C@H](O)[C@@H](C5CC5)C4)nc3c2)cn1 [Example 39, N-{4-[(3R,4R,5S)-3-Amino-5-cyclopropyl-4-hydroxypiperidin-1-yl]pyridin-3-yl}-7-(1-methyl-1H-pyrazol-4-yl)-1,5-naphthyridine-2-carboxamide] | ≤ 10 nM | ≤ 100 nM | ≤ 10 nM | 50 to 250 nM |
| N#CC1CCN(c2cnc3ccc(C(=O)Nc4cnccc4N4C[C@@H](N)[C@H](O)[C@@H](C5CC5)C4)nc3c2)CC1 [Example 41, N-{4-[(3R,4R,5S)-3-Amino-5-cyclopropyl-4-hydroxypiperidin-1-yl]pyridin-3-yl}-7-(4-cyanopiperidin-1-yl)-1,5-naphthyridine-2-carboxamide] | 10 to 50 nM | 1000 to 10000 nM | 10 to 50 nM | 50 to 250 nM |
| N[C@@H]1CN(c2ccncc2NC(=O)c2ccc3ncc(N4CCC5(CCCO5)CC4)cc3n2)C[C@H](C2CC2)[C@H]1O [Example 42, N-{4-[(3R,4R,5S)-3-Amino-5-cyclopropyl-4-hydroxypiperidin-1-yl]pyridin-3-yl}-7-(1-oxa-8-azaspiro[4.5]dec-8-yl)-1,5-naphthyridine-2-carboxamide] | ≤ 10 nM | 100 to 1000 nM | ≤ 10 nM | 50 to 250 nM |
| C[C@H]1CN(c2ccncc2NC(=O)c2ccc3ccc(-c4cnn(C)c4)cc3n2)C[C@@H](N)[C@@H]1O [Example 43, N-{4-[(3R,4R,5S)-3-Amino-4-hydroxy-5-methylpiperidin-1-yl]pyridin-3-yl}-7-(1-methyl-1H-pyrazol-4-yl)quinoline-2-carboxamide] | ≤ 10 nM | ≤ 100 nM | ≤ 10 nM | ≤ 50 nM |
| CCn1cc(-c2ccc3ccc(C(=O)Nc4cnccc4N4C[C@@H](N)[C@H](O)[C@@H](C)C4)nc3c2)cn1 [Example 44, N-{4-[(3R,4R,5S)-3-Amino-4-hydroxy-5-methylpiperidin-1-yl]pyridin-3-yl}-7-(1-ethyl-1H-pyrazol-4-yl)quinoline-2-carboxamide] | ≤ 10 nM | ≤ 100 nM | ≤ 10 nM | ≤ 50 nM |
| COc1ccc(-c2ccc3ccc(C(=O)Nc4cnccc4N4C[C@@H](N)[C@H](O)[C@@H](C)C4)nc3c2)cn1 [Example 45, N-{4-[(3R,4R,5S)-3-Amino-4-hydroxy-5-methylpiperidin-1-yl]pyridin-3-yl}-7-(6-methoxypyridin-3-yl)quinoline-2-carboxamide] | ≤ 10 nM | ≤ 100 nM | ≤ 10 nM | ≤ 50 nM |
| C[C@H]1CN(c2ccncc2NC(=O)c2ccc3ccc(-c4ccc(N5CCOCC5)nc4)cc3n2)C[C@@H](N)[C@@H]1O [Example 46, N-{4-[(3R,4R,5S)-3-Amino-4-hydroxy-5-methylpiperidin-1-yl]pyridin-3-yl}-7-(6-morpholin-4-ylpyridin-3-yl)quinoline-2-carboxamide] | ≤ 10 nM | ≤ 100 nM | ≤ 10 nM | ≤ 50 nM |
